These compounds were tested on hypoxia-inducible endogenous VEGF expression (assay: Hypoxia-inducible endogenous VEGF expression ELISA in HeLa cells, dose-response EC50 (Table 3)). Conditions: HeLa cells, hypoxic conditions (1% O2), 24-48 hours, VEGF in conditioned media; read-out: ELISA EC50.
Assay type: cell-based, human
Description: The ability of the Compounds to modulate hypoxia-inducible endogenous VEGF expression may be analyzed as follows. VEGF protein levels may be monitored by an ELISA assay (R&D Systems). Briefly, HeLa cells may be cultured for 24-48 hours under hypoxic conditions (1% O2, 5% CO2, balanced with nitrogen) in the presence or absence of a Compound. The conditioned media may then be assayed by ELISA, and the concentration of VEGF calculated from the standard ELISA curve of each assay.
A dose-response analysis may be performed using the ELISA assay and conditions described above. The conditions for the dose-response ELISA are analogous to those described above. A series of, e.g., seven different concentrations may be analyzed. In parallel, a dose-response cytotoxicity assay may be performed using Cell Titer Glo (Promega) under the same conditions as the ELISA to ensure that the inhibition of VEGF expression was not due to the cytotoxicity.

Row | Structure (SMILES) | EC50 [µM]
1 | COc1ccc(C2c3[nH]c4ccc(Cl)cc4c3CCN2C(=O)Oc2ccc(F)cc2)cc1 (stereo not shown) [Compound 410] | < 0.008
2 | O=C(Oc1ccc(Cl)cc1)N1CCc2c([nH]c3ccc(Cl)cc23)C1c1ccc(S(=O)(=O)N2CCOCC2)cc1 (stereo not shown) [Compound 450] | 0.008 to 0.04

Same assay, conditions: Homo sapiens, HeLa, read-out: ELISA EC50 μM

Row | Structure (SMILES) | EC50 [µM]
3 | CC(=O)N1CCN(CC(O)COc2ccc(C3c4[nH]c5ccc(Cl)cc5c4CCN3C(=O)Oc3ccc(Cl)cc3)cc2)CC1 (stereo not shown) [Compound 415] | < 0.008
4 | COCCN(C)CC(O)COc1ccc(C2c3[nH]c4ccc(Cl)cc4c3CCN2C(=O)Oc2ccc(F)cc2)cc1 (stereo not shown) [Compound 936] | < 0.008
5 | COCCN(CCOC)CC(O)COc1ccc(C2c3[nH]c4ccc(Cl)cc4c3CCN2C(=O)Oc2ccc(Cl)cc2)cc1 (stereo not shown) [Compound 918] | < 0.008
6 | O=C(Oc1ccc(Cl)cc1)N1CCc2c([nH]c3ccc(Cl)cc23)C1c1ccc(OCCCN2CCN(CCO)CC2)cc1 (stereo not shown) [Compound 942] | 0.008 to 0.04
7 | COc1ccc(C2c3[nH]c4ccc(Cl)cc4c3CCN2C(=O)Oc2ccc(Cl)cc2)cc1OCCCN1CCOCC1 (stereo not shown) [Compound 1096] | 0.2 to 1
8 | COc1ccc(OC(=O)N2CCc3c([nH]c4ccc(Cl)cc34)C2c2ccc(OCC(=O)NCCN3CCOCC3)cc2)cc1 (stereo not shown) [Compound 1026] | 0.008 to 0.04
9 | Cc1ccc(OC(=O)N2CCc3c([nH]c4ccc(Cl)cc34)C2c2ccc(OCCCN(C)C)cc2)cc1 (stereo not shown) [Compound 502] | 0.04 to 0.2
10 | Cc1ccc(OC(=O)N2CCc3c([nH]c4ccc(Cl)cc34)[C@@H]2c2ccc(OCCC(O)CN3CCOCC3)cc2)cc1 (stereo partly shown) [Compound 1302] | 0.04 to 0.2
11 | O=C(Oc1ccc(Cl)cc1)N1CCc2c([nH]c3ccc(Cl)cc23)C1c1ccc(OCCCCN2CCCCC2)cc1 (stereo not shown) [Compound 703] | 0.008 to 0.04
12 | CN1CCN(CCCCOc2ccc(C3c4[nH]c5ccc(Cl)cc5c4CCN3C(=O)Oc3ccc(F)cc3)cc2)CC1 (stereo not shown) [Compound 740] | 0.04 to 0.2
13 | COc1cc(C2c3[nH]c4ccc(Cl)cc4c3CCN2C(=O)Oc2ccc(C)cc2)ccc1OCCCN1CCOCC1 (stereo not shown) [Compound 1132] | 0.008 to 0.04
14 | O=C(Oc1ccc(Cl)cc1)N1CCc2c([nH]c3ccc(Cl)cc23)[C@@H]1c1ccc(OCCCNCCO)cc1 [Compound 1257] | 0.008 to 0.04
15 | O=C(Oc1ccc(F)cc1)N1CCc2c([nH]c3ccc(Cl)cc23)C1c1cccc(OCCCN2CCOCC2)c1 (stereo not shown) [Compound 1115] | 0.008 to 0.04
16 | CN1CCN(CCCOc2ccc(C3c4[nH]c5ccc(Cl)cc5c4CCN3C(=O)Oc3ccccc3)cc2)CC1 (stereo not shown) [Compound 1076] | 0.04 to 0.2

Same assay, conditions: Homo sapiens; HeLa cells, hypoxic conditions (1% O2), 24-48 hours, VEGF in conditioned media; read-out: ELISA EC50

Row | Structure (SMILES) | EC50 [µM]
17 | COc1ccc(OC(=O)N2CCc3c([nH]c4ccc(Cl)cc34)C2c2ccc(OCCCn3ccnc3)cc2)cc1 (stereo not shown) [Compound 920] | < 0.008
18 | O=C(Oc1ccc(F)cc1)N1CCc2c([nH]c3ccc(Cl)cc23)C1c1ccc(OCCn2ccnc2)cc1 (stereo not shown) [Compound 835] | 0.04 to 0.2
19 | O=C(Oc1ccccc1)N1CCc2c([nH]c3ccc(Cl)cc23)C1c1ccc(OCCCn2ccnc2)cc1 (stereo not shown) [Compound 911] | < 0.008
20 | O=C(Oc1ccc(Cl)cc1)N1CCc2c([nH]c3ccc(Cl)cc23)C1c1ccc(OCCCCCl)cc1 (stereo not shown) [Compound 660] | < 0.008
21 | O=C(Oc1ccccc1)N1CCc2c([nH]c3ccc(Cl)cc23)C1c1ccc(OCCCn2ccnn2)cc1 (stereo not shown) [Compound 1077] | 0.008 to 0.04
22 | O=C(Oc1ccc(F)cc1)N1CCc2c([nH]c3ccc(Cl)cc23)C1c1cccc(OCCCn2cncn2)c1 (stereo not shown) [Compound 1155] | 0.04 to 0.2
23 | COCCOCCOc1ccc(C2c3[nH]c4ccc(Cl)cc4c3CCN2C(=O)Oc2ccc(OC)cc2)cc1 (stereo not shown) [Compound 678] | 0.04 to 0.2
24 | O=C(Oc1ccccc1)N1CCc2c([nH]c3ccc(Cl)cc23)C1c1ccc(OCCCO)cc1 (stereo not shown) [Compound 1062] | < 0.008
25 | O=C(Oc1ccc(Cl)cc1)N1CCc2c([nH]c3ccc(Cl)cc23)[C@@H]1c1ccc(OCC(CO)CO)cc1 [Compound 1209] | < 0.008
26 | COc1ccc(OC(=O)N2CCc3c([nH]c4ccc(Cl)cc34)C2c2ccc(OCC[C@H](O)CO)cc2)cc1 (stereo partly shown) [Compound 1181] | < 0.008
27 | O=C(Oc1ccc(Cl)cc1)N1CCc2c([nH]c3ccc(Cl)cc23)[C@H]1c1ccc(OCCCn2nccn2)cc1 [Compound 1127] | 0.04 to 0.2
28 | O=C(Oc1ccc(Cl)cc1)N1CCc2c([nH]c3ccc(Cl)cc23)C1c1ccc(OCCNc2cccnc2)cc1 (stereo not shown) [#843] | < 0.008
29 | CC(C)C(=O)Nc1ccc(C2c3[nH]c4ccc(Cl)cc4c3CCN2C(=O)Oc2ccc(Cl)cc2)cc1 (stereo not shown) [Compound 482] | 0.04 to 0.2
30 | COCC(=O)NCC(O)CCOc1ccc([C@H]2c3[nH]c4ccc(Cl)cc4c3CCN2C(=O)Oc2ccc(C)cc2)cc1 (stereo partly shown) [Compound 1301] | 0.008 to 0.04
31 | COc1cc(C2c3[nH]c4ccc(Cl)cc4c3CCN2C(=O)Oc2ccccc2)ccc1OCCCn1nccn1 (stereo not shown) [Compound 1145] | 0.008 to 0.04
32 | COC(=O)c1ccc(C2c3[nH]c4ccc(Br)cc4c3CCN2C(=O)Oc2ccc(F)cc2)cc1 (stereo not shown) [Compound 592] | < 0.008
33 | Cc1ccc(C2c3[nH]c4ccc(Br)cc4c3CCN2C(=O)Oc2ccc(F)cc2)cc1 (stereo not shown) [Compound 398] | < 0.008
34 | COc1cc(C2c3[nH]c4ccc(Cl)cc4c3CCN2C(=O)Oc2ccc(Cl)cc2)ccc1OCCn1cncn1 (stereo not shown) [Compound 1086] | 0.008 to 0.04
35 | O=C(Oc1ccc(F)cc1)N1CCc2c([nH]c3ccc(Br)cc23)C1c1ccc(C(F)(F)F)cc1 (stereo not shown) [Compound 397] | < 0.008
36 | O=C(Oc1ccc(Cl)cc1)N1CCc2c([nH]c3ccc(Cl)cc23)C1c1ccc(Cl)cc1 (stereo not shown) [Compound 351] | 0.008 to 0.04
37 | O=C(Oc1ccc(F)cc1)Oc1ccc(C2c3[nH]c4ccc(Cl)cc4c3CCN2C(=O)Oc2ccc(F)cc2)cc1 (stereo not shown) [Compound 576] | 0.04 to 0.2

Same assay, conditions: Homo sapiens; HeLa cells, hypoxic conditions (1% O2), VEGF ELISA of conditioned media; read-out: ELISA EC50

Row | Structure (SMILES) | EC50 [µM]
38 | O=C(NCC(O)CCOc1ccc([C@H]2c3[nH]c4ccc(Cl)cc4c3CCN2C(=O)Oc2ccc(Cl)cc2)cc1)c1ccncc1 (stereo partly shown) [Compound 1627] | < 0.008
39 | O=C(Oc1ccc(Cl)cc1)N1CCc2c([nH]c3ccc(Cl)cc23)[C@@H]1c1ccc(OC2CCN(c3ncccn3)CC2)cc1 [Compound 1681] | < 0.008
40 | C#CCCOc1ccc([C@H]2c3[nH]c4ccc(Cl)cc4c3CCN2C(=O)Oc2ccc(Cl)cc2)cc1 [Compound 1614] | < 0.008
41 | O=C(NCC(O)COc1ccc(C2c3[nH]c4ccc(Cl)cc4c3CCN2C(=O)Oc2ccc(Cl)cc2)cc1)C1CC1 (stereo not shown) [Compound 1560] | 0.008 to 0.04
42 | CC(C)C(=O)NCC(O)COc1ccc(C2c3[nH]c4ccc(Cl)cc4c3CCN2C(=O)Oc2ccc(Cl)cc2)cc1 (stereo not shown) [Compound 1559] | 0.008 to 0.04
43 | [H]/N=c1\scnn1CCOc1ccc(C2c3[nH]c4ccc(Cl)cc4c3CCN2C(=O)Oc2ccc(Cl)cc2)cc1 (stereo not shown) [Compound 1420] | < 0.008
44 | Cc1cnc(C)c(Oc2ccc([C@H]3c4[nH]c5ccc(Cl)cc5c4CCN3C(=O)Oc3ccc(Cl)cc3)cc2)n1 [Compound 1658] | < 0.008
45 | O=C(Oc1ccc(F)cc1)N1CCc2c([nH]c3ccc(Br)cc23)C1c1ccc(OCC(O)CO)cc1 (stereo not shown) [Compound 1343] | < 0.008
46 | CC(C)C(=O)NCC(O)CCOc1ccc([C@H]2c3[nH]c4ccc(Cl)cc4c3CCN2C(=O)Oc2ccc(Cl)cc2)cc1 (stereo partly shown) [Compound 1626] | < 0.008
47 | O=C(Oc1ccc(Cl)cc1)N1CCc2c([nH]c3ccc(Cl)cc23)[C@@H]1c1ccc(OC2COC2)cc1 [Compound 1701] | < 0.008
48 | CCSCCCOc1ccc(C2c3[nH]c4ccc(Cl)cc4c3CCN2C(=O)Oc2ccc(Cl)cc2)cc1 (stereo not shown) [Compound 1552] | < 0.008
49 | O=C(Oc1ccc(Cl)cc1)N1CCc2c([nH]c3ccc(Br)cc23)C1c1ccc(OCC(O)CO)cc1 (stereo not shown) [Compound 1344] | < 0.008

Source: patent US20120157401A1, “METHODS FOR TREATING NEUROFIBROMATOSIS” (PTC Therapeutics, Inc., priority 2009, published 2012)
